Active and inactive are the calls of the source. The rule behind the calls is not given here.
How the values were obtained:
[1] = Bromide reactivity in pH 7 C2H5OH/PBS assessed as change in fluorescence at 50 uM
[2] = Chloride reactivity in pH 7 C2H5OH/PBS assessed as change in fluorescence at 50 uM
[3] = Iodide reactivity in pH 7 C2H5OH/PBS assessed as change in fluorescence at 50 uM
[4] = Thiocyanate reactivity in pH 7 C2H5OH/PBS assessed as change in fluorescence at 50 uM
[5] = […] reactivity in pH 7 C2H5OH/PBS assessed as change in fluorescence at 50 uM
[6] = Sulfate reactivity in pH 7 C2H5OH/PBS assessed as change in fluorescence at 50 uM
[7] = Bicarbonate reactivity in pH 7 C2H5OH/PBS assessed as change in fluorescence at 50 uM
[8] = Nitrate reactivity in pH 7 C2H5OH/PBS assessed as change in fluorescence at 50 uM
[9] = Acetate reactivity in pH 7 C2H5OH/PBS assessed as change in fluorescence at 50 uM
[10] = Potassium reactivity in pH 7 C2H5OH/PBS assessed as change in fluorescence at 50 uM
[11] = Sodium reactivity in pH 7 C2H5OH/PBS assessed as change in fluorescence at 50 uM
[12] = Zinc reactivity in pH 7 C2H5OH/PBS assessed as change in fluorescence at 50 uM
[13] = Phosphoric acid reactivity in pH 7 C2H5OH/PBS assessed as change in fluorescence at 50 uM
[14] = Cysteine reactivity in pH 7 C2H5OH/PBS assessed as change in fluorescence at 50 uM
[15] = Glutathione reactivity in pH 7 C2H5OH/PBS assessed as change in fluorescence at 50 uM
[16] = Cytotoxicity against human HCT-116 cells assessed as cell viability up to 50 uM incubated for 24 hrs by CCK8 assay relative to control; format: cell-based; settings: read-out: Activity
[17] = Cytotoxicity against human HCT-116 cells assessed as cell viability at 10 uM incubated for 24 hrs by CCK8 assay relative to control; format: cell-based; settings: read-out: Activity
[18] = Hydrogen sulphide reactivity in pH 7 C2H5OH/PBS assessed as change in fluorescence at 50 uM
[19] = Drug accumulation in human HCT116 cells up to 100 uM in presence of Na2S; format: ADME, cell-based; settings: hct-116

CN(C)c1ccc2c(c1)Sc1cc(N(C)C)ccc1N2c1ccc([N+](=O)[O-])c2nonc12
Activity [1]: inactive | Activity [2]: inactive | Activity [3]: inactive | Activity [4]: inactive | Activity [5]: inactive | Activity [6]: inactive | Activity [7]: inactive | Activity [8]: inactive | Activity [9]: inactive | Activity [10]: inactive | Activity [11]: inactive | Activity [12]: inactive | Activity [13]: inactive | Activity [14]: Active | Activity [15]: Active | viability at 24 h [16]: 64% | viability at 24 h, 10 µM [17]: > 85% | Activity [18]: Active | Drug uptake [19]: Active
